“And” between values parts separate entries of the source, which are not always exact repeats. Equal entries are not always repeated.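 1) Cells in 96-well plates. 2) Compound, 48 h, 5 concentrations. 3) Linear interpolation between surrounding doses. 4) Unreached endpoint = highest concentration. At the GI50, growth is halved. Definition used: TGI = concentration required for complete inhibition of growth.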
Key:
Assay in all cases: growth of human tumour cells (NCI), 48 h
[1] = system: K-562 leukemia
[2] = system: OVCAR-5 ovarian
[3] = system: DU-145 prostate
[4] = system: CAKI-1 renal
[5] = system: NCI-H226 lung
[6] = system: RPMI-8226 leukemia
[7] = system: HT29 colon
[8] = system: KM12 colon
[9] = system: NCI-H23 lung
[10] = system: OVCAR-4 ovarian
[11] = system: SF-295 CNS
[12] = system: T-47D breast
[13] = system: HCT-116 colon
[14] = system: HOP-62 NSCLC
[15] = system: U251 CNS
[16] = system: SK-MEL-2 melanoma
[17] = system: MCF7 breast
[18] = system: BT-549 breast
[19] = system: EKVX NSCLC
[20] = system: MDA-MB-435
[21] = system: OVCAR-8 ovarian
[22] = system: SK-MEL-28 melanoma
[23] = system: OVCAR-3 ovarian
[24] = system: SN12C renal
[25] = system: MALME-3M melanoma
[26] = system: SK-OV-3 ovarian
[27] = system: MOLT-4 leukemia
[28] = system: COLO 205 colon
[29] = system: ACHN renal
[30] = system: 786-0 renal
[31] = system: PC-3 prostate
[32] = system: SF-539 CNS
[33] = system: UACC-257 melanoma
[34] = system: A498 renal
[35] = system: UACC-62 melanoma
[36] = system: UO-31 renal
[37] = system: SW-620 colon
[38] = system: HS 578T breast
[39] = system: SK-MEL-5 melanoma
[40] = system: RXF 393 renal
[41] = system: CCRF-CEM leukemia
[42] = system: TK-10 renal
[43] = system: NCI-H460 lung
[44] = system: A549 NSCLC
[45] = system: HCT-15 colon
[46] = system: SR leukemia
[47] = system: M14 melanoma
[48] = system: MDA-MB-231 breast
[49] = system: SF-268 CNS
[50] = system: HL-60(TB) leukemia
[51] = system: NCI/ADR-RES ovarian
[52] = system: SNB-75 CNS
[53] = system: HCC-2998 colon
[54] = system: LOX IMVI melanoma
[55] = system: IGROV1 ovarian
[56] = system: HOP-92 NSCLC
[57] = system: NCI-H522 lung
[58] = system: SNB-19 CNS

SMILES: O=C1/C(=C\c2coc3ccccc3c2=O)c2ccccc2N1c1c(Cl)cccc1Cl
- GI50 [1]: 2.08 µM
- TGI [1]: > 100 µM
- GI50 [2]: 20.9 µM
- TGI [2]: > 100 µM
- GI50 [3]: 4.71 µM
- TGI [3]: > 100 µM
- GI50 [4]: 2.45 µM
- TGI [4]: > 100 µM
- GI50 [5]: 20.7 µM
- TGI [5]: > 100 µM
- GI50 [6]: 1.25 µM
- TGI [6]: 3.95 µM
- GI50 [7]: 3.05 µM
- TGI [7]: > 100 µM
- GI50 [8]: 3.06 µM
- TGI [8]: 68.5 µM
- GI50 [9]: 4.45 µM
- TGI [9]: > 100 µM
- GI50 [10]: 3.66 µM
- TGI [10]: > 100 µM
- GI50 [11]: 4.22 µM
- TGI [11]: > 100 µM
- GI50 [12]: 3.05 µM
- TGI [12]: 31.1 µM
- GI50 [13]: 2.01 µM
- TGI [13]: 14.5 µM
- GI50 [14]: 4.77 µM
- TGI [14]: > 100 µM
- GI50 [15]: 1.45 µM
- TGI [15]: 35.6 µM
- GI50 [16]: 2.75 µM
- TGI [16]: 6.04 µM
- GI50 [17]: 3.21 µM
- TGI [17]: > 100 µM
- GI50 [18]: 2.83 µM
- TGI [18]: 35.3 µM
- GI50 [19]: 2.82 µM
- TGI [19]: > 100 µM
- GI50 [20]: 2.7 µM
- TGI [20]: 9.69 µM
- GI50 [21]: 5.47 µM
- TGI [21]: 48.8 µM
- GI50 [22]: 3.91 µM
- TGI [22]: > 100 µM
- GI50 [23]: 2.71 µM
- TGI [23]: 10.3 µM
- GI50 [24]: 3.35 µM
- TGI [24]: > 100 µM
- GI50 [25]: 2.48 µM
- TGI [25]: 13 µM
- GI50 [26]: 35.6 µM
- TGI [26]: > 100 µM
- GI50 [27]: 2.98 µM
- TGI [27]: > 100 µM
- GI50 [28]: 3.82 µM
- TGI [28]: 36 µM
- GI50 [29]: 4.14 µM
- TGI [29]: > 100 µM
- GI50 [30]: 3.1 µM
- TGI [30]: 33.7 µM
- GI50 [31]: 1.35 µM
- TGI [31]: 30.5 µM
- GI50 [32]: 3.06 µM
- TGI [32]: > 100 µM
- GI50 [33]: 4.59 µM
- TGI [33]: > 100 µM
- GI50 [34]: 4.35 µM
- TGI [34]: > 100 µM
- GI50 [35]: 2.13 µM
- TGI [35]: > 100 µM
- GI50 [36]: 1.8 µM
- TGI [36]: 11.9 µM
- GI50 [37]: 5.28 µM
- TGI [37]: > 100 µM
- GI50 [38]: 9.05 µM
- TGI [38]: > 100 µM
- GI50 [39]: 2.44 µM
- TGI [39]: > 100 µM
- GI50 [40]: 1.86 µM
- TGI [40]: 5.11 µM
- GI50 [41]: 2.08 µM
- TGI [41]: > 100 µM
- GI50 [42]: 3.29 µM
- TGI [42]: > 100 µM
- GI50 [43]: 2.05 µM
- TGI [43]: 16.3 µM
- GI50 [44]: 4.24 µM
- TGI [44]: > 100 µM
- GI50 [45]: 0.65 µM
- TGI [45]: > 100 µM
- GI50 [46]: 1.44 µM
- TGI [46]: 56.4 µM
- GI50 [47]: 5.28 µM
- TGI [47]: 97.4 µM
- GI50 [48]: 3.88 µM
- TGI [48]: > 100 µM
- GI50 [49]: 3.41 µM
- TGI [49]: > 100 µM
- GI50 [50]: 2.08 µM
- TGI [50]: 87.6 µM
- GI50 [51]: 3.42 µM
- TGI [51]: > 100 µM
- GI50 [52]: 1.91 µM
- TGI [52]: 37.4 µM
- GI50 [53]: 5.33 µM
- TGI [53]: > 100 µM
- GI50 [54]: 1.52 µM
- TGI [54]: 8.91 µM
- GI50 [55]: 1.62 µM
- TGI [55]: 5.91 µM

SMILES: CC[C@H](C)n1cc(C)c2c(C(=O)NCc3c(C)cc(C)[nH]c3=O)cc(-c3ccc(N4CCNCC4)nc3)cc21
- GI50 [56]: 6.72 µM and 6.83 µM
- TGI [56]: 20.9 µM and 21.1 µM
- GI50 [1]: 2.87 µM and 3.2 µM
- TGI [1]: 8.09 µM and 10.9 µM
- GI50 [2]: 16.1 µM and 15.3 µM
- TGI [2]: 30.5 µM and 29.9 µM
- GI50 [3]: 14.7 µM and 15.1 µM
- TGI [3]: 27.9 µM and 28.7 µM
- GI50 [4]: 16.1 µM and 15.4 µM
- TGI [4]: 29.6 µM and 28.8 µM
- GI50 [5]: 16.3 µM and 17.3 µM
- TGI [5]: 36.5 µM and 36.9 µM
- GI50 [6]: 11.4 µM and 11.7 µM
- TGI [6]: 28 µM and 28.9 µM
- GI50 [7]: 5.19 µM and 6.53 µM
- TGI [7]: 18.4 µM and 20.6 µM
- GI50 [57]: 17.6 µM and 14 µM
- TGI [57]: 34.2 µM and 29.5 µM
- GI50 [8]: 11.4 µM and 10.7 µM
- TGI [8]: 24.2 µM and 23.6 µM
- GI50 [9]: 18 µM and 17.6 µM
- TGI [9]: 34.3 µM and 34 µM
- GI50 [10]: 13.4 µM and 12.5 µM
- TGI [10]: 28.9 µM and 26.4 µM
- GI50 [11]: 16.2 µM and 14.8 µM
- TGI [11]: 31.9 µM and 29.3 µM
- GI50 [12]: 16.6 µM and 11.4 µM
- TGI [12]: 36.3 µM and 28.4 µM
- GI50 [13]: 10.1 µM and 9.6 µM
- TGI [13]: 21.6 µM and 22.1 µM
- GI50 [14]: 17.1 µM and 14.9 µM
- TGI [14]: 33.1 µM and 29.8 µM
- GI50 [15]: 10.9 µM and 10.2 µM
- TGI [15]: 23.1 µM and 22.7 µM
- GI50 [16]: 17.5 µM and 15.4 µM
- TGI [16]: 32.9 µM and 29.9 µM
- GI50 [17]: 10.4 µM and 6.88 µM
- TGI [17]: 24.9 µM and 21.8 µM
- GI50 [18]: 15.4 µM and 13.5 µM
- TGI [18]: 30.5 µM and 27.7 µM
- GI50 [19]: 12.6 µM and 13.6 µM
- TGI [19]: 27 µM and 27.6 µM
- GI50 [20]: 10 µM and 5.12 µM
- TGI [20]: 21.6 µM and 16.3 µM
- GI50 [58]: 14.9 µM and 12.7 µM
- TGI [58]: 30.4 µM and 26.8 µM
- GI50 [21]: 18.5 µM and 17.7 µM
- TGI [21]: 37.4 µM and 37.6 µM
- GI50 [22]: 14.1 µM and 6.51 µM
- TGI [22]: 27.8 µM and 19.9 µM
- GI50 [23]: 14.2 µM
- TGI [23]: 27.4 µM and 28.2 µM
- GI50 [24]: 13.8 µM and 13.7 µM
- TGI [24]: 27.9 µM and 28.6 µM
- GI50 [25]: 8 µM and 2.51 µM
- TGI [25]: 21.5 µM and 6.78 µM
- GI50 [26]: 19.1 µM and 14.6 µM
- TGI [26]: 33.5 µM and 28 µM
- GI50 [27]: 5.87 µM and 6.18 µM
- TGI [27]: 20.6 µM and 22 µM
- GI50 [28]: 5.25 µM and 2.93 µM
- TGI [28]: 18.6 µM and 8.85 µM
- GI50 [29]: 17.1 µM and 16.5 µM
- TGI [29]: 31.2 µM and 31.3 µM
- GI50 [30]: 10.6 µM and 11.7 µM
- TGI [30]: 24.4 µM and 25.2 µM
- GI50 [31]: 17.3 µM and 13.9 µM
- TGI [31]: 31.5 µM and 27.3 µM
- GI50 [32]: 15.1 µM and 13 µM
- TGI [32]: 28.5 µM and 26.7 µM
- GI50 [33]: 16.5 µM and 14.8 µM
- TGI [33]: 31.5 µM and 29.5 µM
- GI50 [34]: 15.4 µM and 12.6 µM
- TGI [34]: 30 µM and 26.9 µM
- GI50 [35]: 17.5 µM and 14.3 µM
- TGI [35]: 33.2 µM and 28.5 µM
- GI50 [36]: 15.3 µM and 12.9 µM
- TGI [36]: 29.6 µM and 27.3 µM
- GI50 [37]: 10.1 µM and 8.21 µM
- TGI [37]: 21.8 µM and 22.1 µM
- GI50 [38]: 13.6 µM and 13.2 µM
- TGI [38]: 30.9 µM and 33.1 µM
- GI50 [39]: 15.8 µM and 6.13 µM
- TGI [39]: 29.2 µM and 18 µM
- GI50 [40]: 9 µM and 7.71 µM
- TGI [40]: 23.7 µM and 23.2 µM
- GI50 [41]: 18 µM and 11.1 µM
- TGI [41]: 35.9 µM and 26.3 µM
- GI50 [42]: 15.4 µM
- TGI [42]: 29.7 µM
- GI50 [43]: 12.3 µM and 12.5 µM
- TGI [43]: 24.7 µM and 26 µM
- GI50 [44]: 16.8 µM and 16.3 µM
- TGI [44]: 32.4 µM and 32.1 µM
- GI50 [45]: 15.9 µM and 12.6 µM
- TGI [45]: 30.7 µM and 26.5 µM
- GI50 [47]: 9.56 µM and 4.52 µM
- TGI [47]: 22.5 µM and 14.3 µM
- GI50 [48]: 6.38 µM and 7 µM
- TGI [48]: 19.5 µM and 20.5 µM
- GI50 [49]: 14.7 µM and 13 µM
- TGI [49]: 29.8 µM and 27.8 µM
- GI50 [50]: 24.6 µM and 14.6 µM
- TGI [50]: 41.8 µM and 31.9 µM
- GI50 [51]: 35.1 µM and 17.6 µM
- TGI [51]: > 100 µM and 33.7 µM
- GI50 [52]: 6.12 µM and 3.63 µM
- TGI [52]: 19.8 µM and 17.6 µM
- GI50 [53]: 14.7 µM and 9.46 µM
- TGI [53]: 30.2 µM and 23.4 µM
- GI50 [54]: 8.89 µM and 6.3 µM
- TGI [54]: 21.8 µM and 19.4 µM
- GI50 [55]: 12.9 µM and 16.4 µM
- TGI [55]: 27.4 µM and 33.2 µM

Reference: PubChem BioAssay (NCI)
